The values below come from patent US8729077B2, “Anti-viral compounds, compositions, and methods of use” (GlaxoSmithKline LLC, priority 2008, dated 2014).

Test [1] deals with HCV genotype 1a subgenomic replicon. The experiment in a line: HCV replicon assay, genotype 1a (luciferase). It counts as cell-based. As to conditions: Hepatitis C virus; genotype 1a replicon stable cell line; luciferase activity measured 48 hours later; 10 point dose response; read-out: 1A pEC50 (converted). On the procedure:
(§1) Protocol for Testing and Data Analysis of Compounds in the HCV Replicon Assay
(§2) Compounds were assayed for activity against HCV using the genotype 1a and 1b subgenomic replicon model systems. Stable cell lines bearing the genotype 1a and 1b replicons were used for screening of compounds. Both replicons are bicistronic and contain the firefly luciferase gene. The ET cell line is stably transfected with RNA transcripts harboring a I389luc-ubi-neo/NS3-3′/ET replicon with firefly luciferase-ubiquitin-neomycin phosphotransferase fusion protein and EMCV-IRES driven NS3-5B polyprotein containing the cell culture adaptive mutations (E1202G; T1280I; K1846T) (Krieger at al, 2001 and unpublished). The genotype 1a replicon is a stable cell line licensed from Apath LLC, modified to contain the firefly luciferase gene. The cells were grown in DMEM, supplemented with 10% fetal calf serum, 2 mM Glutamine, Penicillin (100 IU/mL)/Streptomycin (100 μg/mL), 1× nonessential amino acids, and 250-500 μg/mL G418 (“Geneticin”). They were all available through Life Technologies (Bethesda, Md.). The cells were plated at 0.5×10^4 cells/well in 384 well plates containing compounds. The final concentration of compounds ranged between 0.03 pM to […] and the final DMSO concentration of 0.5-1%.
(§3) Luciferase activity was measured 48 hours later by adding a Steady glo (Promega, Madison, Wis.). Percent inhibition of replication data was plotted relative to no compound control. Under the same condition, cytotoxicity of the compounds was determined using cell titer glo (Promega, Madison, Wis.). EC50s were determined from a 10 point dose response curve using 3-4-fold serial dilution for each compound, which spans a concentration range >1000 fold. BioAssay determines the level of inhibition for each compound by normalizing cross-talk corrected plate values against the negative (low or background, cells with no compound present) and positive (high DMSO, no cells) controls to determine Percent Inhibition:
(§4) These normalized values are exported to EC50 where they are plotted against the molar compound concentrations using the standard four parameter logistic equation:
(§5) A=minimum y D=slope factor
(§6) B=maximum y x=log10 compound concentration [M]

For test [2], the system named is HCV genotype 1b subgenomic replicon. In words: HCV replicon assay, genotype 1b (luciferase, ET cell line). It counts as cell-based. As to conditions: Hepatitis C virus; genotype 1b replicon (ET cell line); luciferase activity measured 48 hours later; 10 point dose response; read-out: 1B pEC50 (converted). The procedure:
as §1, §2, §3, §4, §5, §6

For the compound `CN(C)[C@@H](C(=O)N1CCC[C@H]1c1nc(-c2ccc(-c3ccc(-c4c[nH]c([C@@H]5COC6(CCOCC6)N5C(=O)OCc5ccccc5)n4)cc3)cc2)c[nH]1)c1ccccc1` [example 1], the EC50 is 1.58 nM in test [1] and 0.00347 nM in test [2].
The like results for `COC(=O)N[C@H](C(=O)N1CCC[C@H]1c1ncc(-c2ccc(-c3ccc(-c4cnc([C@@H]5C=C(C)CN5C(=O)[C@H](NC(=O)OC)C(C)C)[nH]4)cc3)cc2)[nH]1)C(C)C` [example 9, (1-{(S)-2-[5-(4′-{2-[(S)-1-((R)-2-Methoxycarbonylamino-3-methyl-butyryl)-4-methyl-2,5-dihydro-1H-pyrrol-2-yl]-3H-imidazol-4-yl}-biphenyl-4-yl)-1H-imidazol-2-yl]-pyrrolidine-1-carbonyl}-2-methyl-propyl)-carbamic acid methyl ester] were, in that order, 0.0158 nM and 0.00776 nM.
On to `CCC1=C[C@@H](c2ncc(-c3ccc(-c4ccc(-c5cnc([C@@H]6CCCN6C(=O)C(NC(=O)OC)C(C)C)[nH]5)cc4)cc3)[nH]2)N(C(=O)[C@H](NC(=O)OC)C(C)C)C1` (stereo partly drawn) [example 10, (1-{(S)-2-[5-(4′-{2-[(S)-4-Ethyl-1-((R)-2-methoxycarbonylamino-3-methyl-butyryl)-2,5-dihydro-1H-pyrrol-2-yl]-3H-imidazol-4-yl}-biphenyl-4-yl)-1H-imidazol-2-yl]-pyrrolidine-1-carbonyl]-2-methyl-propyl)-carbamic acid methyl ester], for which the EC50 in test [1] is 0.0316 nM; in test [2], 0.00603 nM.
For `COC(=O)N[C@H](C(=O)N1CC(C2CC2)=C[C@H]1c1ncc(-c2ccc(-c3ccc(-c4cnc([C@@H]5CCCN5C(=O)[C@@H](NC(=O)OC)C(C)C)[nH]4)cc3)cc2)[nH]1)C(C)C` [example 11, methyl[(1S)-1-({(2S)-2-[4-(4′-{2-[(2S)-4-cyclopropyl-1-((2S)-3-methyl-2-{[(methyloxy)carbonyl]amino}butanoyl)-2,5-dihydro-1H-pyrrol-2-yl]-1H-imidazol-4-yl}-4-biphenylyl)-1H-imidazol-2-yl]-1-pyrrolidinyl}carbonyl)-2-methylpropyl]carbamate] the same measures were 0.0126 nM and 0.00468 nM.
With `CC=C1C[C@@H](c2ncc(-c3ccc(-c4ccc(-c5cnc([C@@H]6CCCN6C(=O)C(NC(=O)OC)C(C)C)[nH]5)cc4)cc3)[nH]2)N(C(=O)C(NC(=O)OC)C(C)C)C1` (stereo partly drawn) [example 12, (1-{(S)-2-[5-(4′-{2-[(S)-4-Ethylidene-1-(2-methoxycarbonylamino-3-methyl-butyryl)-pyrrolidin-2-yl]-3H-imidazol-4-yl}-biphenyl-4-yl)-1H-imidazol-2-yl]-pyrrolidine-1-carbonyl}-2-methyl-propyl)-carbamic acid methyl ester], the EC50 is 0.0158 nM in test [1] and 0.00437 nM in test [2].
